# Measurements from US20070207331A1, “Azo compounds and coating compositions containing the azo compounds” (priority 2006, published 2007).
# Assay: solubility of the reactive azo compounds in toluene (weight percent solubility)
# Type: physicochemical
# Conditions: for WPS (weight percent solubility in toluene): heated to boil, cooled to room temperature, filtered (0.45 μm), dry residue mass / filtrate mass; for solubility in toluene relative to compounds of similar structure (in words): comparison of methyl ester comparative compounds with the yellow azo compounds of the invention
# Protocol: The solubilites of the reactive azo compounds of Examples 1, 2, 3 and 4 and Comparative Examples 1, 2 and 3 (C-1, C-2 and C-3) in toluene were determined according to the following procedures: A sample (0.2 g) of each compound was added to a screw top vial followed by the addition of toluene (0.5 mL for each vial containing the reactive azo compound of Examples 1, 3, 4 or C-3; 1.0 mL for Examples 2 or C-1; 1.5 mL for Example C-2. Each vial was capped and heated until the solution or mixture began to boil. Each solution or mixture then was allowed to cool to room temperature. Various amounts of toluene were required to give a filterable solution or suspension upon cooling. The solutions or suspensions of the azo compounds were filtered (0.45 μm nylon membrane with glass microfiber prefilter, Autovial®, Whatman Inc.) to give homogenous solutions (filtrates). Each filtered solution was weighed and the toluene solvent was removed under reduced pressure to give the mass of dry residue of each azo compound dissolved in the toluene solvent. The weight percent solubility of each azo compound is defined as [formula]
# wherein WPS is the weight percent solubility for each azo compound in toluene and Dry Azo Compound Residue and Toluene Solution Filtrate are produced as described above. The results of the toluene solubility evaluations are shown in Table II wherein Azo compound refers to the example in which the reactive azo compound and its preparation is described.
WPS (weight percent solubility in toluene),solubility in toluene relative to compounds of similar structure (in words),SMILES
35.5 weight percent,–,C=C(C)C(=O)OCCn1c(O)c(/N=N/c2ccccc2C(=O)OCCOCC)c(C)c(C#N)c1=O [Example 4]
8.8 weight percent,much lower,C=C(C)c1cccc(C(C)(C)NC(=O)OCCn2c(O)c(/N=N/c3ccc(C(=O)OC)cc3)c(C)c(C#N)c2=O)c1 [Example C-1]
33.3 weight percent,–,C=C(C)C(=O)OCCn1c(O)c(/N=N/c2ccccc2C(=O)OCC(CC)CCCC)c(C)c(C#N)c1=O (stereo not shown) [Example 3]
18.6 weight percent,–,C=C(C)C(=O)OCCn1c(O)c(/N=N/c2ccccc2C(=O)OCC(C)C)c(C)c(C#N)c1=O [Example 2]
37.5 weight percent,–,C=C(C)c1cccc(C(C)(C)NC(=O)OCCn2c(O)c(/N=N/c3ccccc3C(=O)OCC(CC)CCCC)c(C)c(C#N)c2=O)c1 (stereo not shown) [Example 1]
2.3 weight percent,much lower,C=C(C)c1cccc(C(C)(C)NC(=O)OCCn2c(O)c(/N=N/c3ccccc3C(=O)OC)c(C)c(C#N)c2=O)c1 [Example C-2]
11.1 weight percent,much lower,C=C(C)C(=O)OCCn1c(O)c(/N=N/c2ccccc2C(=O)OC)c(C)c(C#N)c1=O [Example C-3]
